pIC50: −log10 of the molar value. Read-outs that look alike come from different tables or passages of the source.
Experiments:
[1] = tested on: Human articular chondrocytes; assay: MTT assay, cell viability of chondrocytes; assay type: cell-based; details: IC50 concentrations, 24 h
Protocol: Human articular chondrocytes (ScienCell, CA, USA) were cultured in the specific Chondrocyte Medium (Cat. 4651; ScienCell, CA, USA) supplemented with 1% antibiotic mixture, in 5% CO2 humidified incubator at 37°C. The medium was renewed every 2 days and confluent chondrocytes were trypsinized, subdivided, and re-plated. In these experiments chondrocytes from passage 3 to 7 were used. Cell viability was evaluated by MTT assay. Chondrocytes were grown and then treated with IC50 doses when reached confluence. In particular, flavocoxid, curcumin, flavocoxid + curcumin, β-caryophyllene, and β-caryophyllene + curcumin were tested in a 96-well plate at a density of 8 × 10^4 cells/well for 24 h to evaluate the cytotoxic effect. The tetrazolium dye MTT 3-(4,5-dimethylthiazol-2-yl)-2,5-diphenyltetrazolium bromide (Sigma Aldrich, Milan, Italy) was dissolved in sterile filtered PBS, and 20 µl of the mixture were added into each well 5 h before the end of the 24 h of incubation. Medium was removed and the insoluble formazan crystals were dissolved with dimethyl sulfoxide (DMSO; 200 µl/well) following 5 h. The difference between the values obtained at 540 and 620 nm of absorbance was used to calculate the average of replicates and to evaluate cytotoxicity. Results were expressed as % of cell viability compared to untreated cells and reported as means and SD.

[2] = tested on: COL2A1 mRNA expression; assay: COL2A1 (type II collagen) mRNA expression by RTqPCR in chondrocytes stimulated with LPS or IL-1β; assay type: cell-based, human; details: IC50 doses
Protocol: (§1) Human articular chondrocytes (ScienCell, CA, USA) were cultured in the specific Chondrocyte Medium (Cat. 4651; ScienCell, CA, USA) supplemented with 1% antibiotic mixture, in 5% CO2 humidified incubator at 37°C. The medium was renewed every 2 days and confluent chondrocytes were trypsinized, subdivided, and re-plated. In these experiments chondrocytes from passage 3 to 7 were used. Chondrocytes were cultured in six well culture plates at a density of 2.5 × 10^5 cells/well. Sixteen hours after seeding, a set of plates were treated with LPS (2 μg/ml; Escherichia coli serotype 055:B5; […] Total RNA was isolated from human chondrocytes for RTqPCR analysis using Trizol Reagent Kit (Life Technologies, Monza, Italy). […] The amplified PCR products were quantified by measuring the calculated cycle thresholds (CT) of targets and β-actin mRNA. The amounts of specific mRNA in samples were calculated using the 2^-ΔΔCT method. The mean value of investigated mRNA levels in LPS or IL-1β-stimulated chondrocytes was chosen as the calibrator, and the results are expressed as % of reduction compared to LPS or IL-1β controls. The IC50 value was calculated by fitting the progress curves to the four-parameter IC50 equation using GraphPad prism software version 5.03 (Graphpad software, CA, USA). […]

[3] = tested on: NF-κB mRNA expression; assay: NF-κB mRNA expression by RTqPCR in LPS-stimulated chondrocytes; assay type: cell-based, human; details: IC50 doses
Protocol: as §1

[4] = tested on: IL-1β mRNA expression; assay: IL-1β mRNA expression (RTqPCR) in LPS-stimulated human articular chondrocytes; Chou-Talalay median-effect and combination index analysis; assay type: cell-based; details: Chondrocyte, 4 h, LPS 2 µg/ml
Protocol: Human articular chondrocytes (ScienCell, CA, USA) were cultured in the specific Chondrocyte Medium (Cat. 4651; ScienCell, CA, USA) supplemented with 1% antibiotic mixture, in 5% CO2 humidified incubator at 37°C. The medium was renewed every 2 days and confluent chondrocytes were trypsinized, subdivided, and re-plated. In these experiments chondrocytes from passage 3 to 7 were used. Chondrocytes were cultured in six well culture plates at a density of 2.5 × 10^5 cells/well. Sixteen hours after seeding, a set of plates were treated with LPS (2 µg/ml; Escherichia coli serotype 055:B5; […] Total RNA was isolated from human chondrocytes for RTqPCR analysis using Trizol Reagent Kit (Life Technologies, Monza, Italy). […] RTqPCR was performed on both targets and endogenous control using SYBR Premix DimerEraser (Takara, Japan) and QuantStudio 6 Flex Real-Time PCR System (Applied Biosystems, CA, USA). The amplified PCR products were quantified by measuring the calculated cycle thresholds (CT) of targets and β-actin mRNA. The amounts of specific mRNA in samples were calculated using the 2^-ΔΔCT method. The mean value of investigated mRNA levels in LPS or IL-1β-stimulated chondrocytes was chosen as the calibrator, and the results are expressed as % of reduction compared to LPS or IL-1β controls. The IC50 value was calculated by fitting the progress curves to the four-parameter IC50 equation using GraphPad prism software version 5.03 (Graphpad software, CA, USA). Chou and Talalay multiple drug effect analysis was performed and it is based on the median-effect principle ([Chou and Talalay, 1984]; [Chou, 2006]). The Median Effect Equation states that fa/fu = (D/Dm) m, where D is the dose, fa and fu are the affected and the unaffected fractions, respectively, of IL-1β mRNA expression levels, by the dose D; Dm is the dose required to produce the median effect (i.e., IC50), and m is the Hill-type coefficient signifying the sigmoidicity of the dose–effect curve. […] The CI was calculated as: CI=[(D)1/(D50)1]+[(D) 2/(D50)2 […] The CI index was calculated using Grafit software.

[5] = tested on: STAT3 mRNA expression; assay: STAT3 mRNA expression by RTqPCR in LPS-stimulated chondrocytes; assay type: cell-based, human; details: IC50 doses
Protocol: as §1

[6] = matrix not stated; no reference given; cited from earlier work
[7] = curcumin/β-caryophyllene experiment, combination molar ratio 3.6:1, read-out: IC50, reduction of IL-1β mRNA

Row | Structure (SMILES) | Cell viability (cytotoxic effect), MTT [1] | COL2A1 (type II collagen) mRNA expression [2] | NF-κB mRNA expression [3] | pIC50 ([4]; curcumin/flavocoxid experiment, combination molar ratio 7.3:1, read-out: IC50, reduction of IL-1β mRNA) | pIC50 [4, 7] | STAT3 mRNA expression [5] | half-life [6]
1 | COc1cc(/C=C/C(=O)CC(=O)/C=C/c2ccc(O)c(OC)c2)ccc1O [curcumin] | did not affect chondrocytes viability | partially able to restore the mRNA control levels | reduced | 4.85 | 4.87 | reduced | about 3 h
2 | C=C1CC/C=C(\C)CC[C@@H]2[C@@H]1CC2(C)C [β-caryophyllene] | did not affect chondrocytes viability | partially able to restore the mRNA control levels | reduced |  | 4.31 | reduced | 

Reference: article PMC6868087, “Exploiting Curcumin Synergy With Natural Products Using Quantitative Analysis of Dose–Effect Relationships in an Experimental In Vitro Model of Osteoarthritis” (Frontiers in Pharmacology, 2019)
